This passage reports TGI results from PubChem BioAssay (NCI).

Several values for one entry are separate records, joined by “and”; a condition that tells them apart may be missing. Identical values can stand only once.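 Results reflect a 48-hour exposure of cells in 96-well plates to compound at five concentrations. TGI marks complete inhibition of growth.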 Some results are limits rather than exact numbers.

Common to all, as to experiment: DTP human tumour cell line panel, 48 h
Assay [1] concerns HL-60(TB) leukemia.
Assay [2] concerns SW-620 colon.
The test system of assay [3] is T-47D breast.
In assay [4] the test system is BT-549 breast.
For assay [5], the system named is NCI/ADR-RES ovarian.

Broadly, the TGI is the concentration giving total growth inhibition. Low values mean greater sensitivity of the cells, high ones lower sensitivity of the cells. On to `O=C1/C(=C/c2ccc(Cl)cc2)Oc2ccccc21`, for which the TGI in assay [1] was greater than 100 µM; in assay [2] it was greater than 100 µM; in assay [3], 90.3 µM; in assay [4], greater than 100 µM.

In the case of `CC(=O)NN(c1ccccc1)C1CCN(c2ccccc2)N1C(C)=O` (centres undefined), the TGI in assay [1], in assay [2], in assay [3], in assay [5] and in assay [4] was greater than 10 µM each time.

For `COC(=O)C(=O)C(C(=O)C(=O)Nc1ccc(C)c(C)c1)c1nc2ccc([N+](=O)[O-])cc2[nH]c1=O` (centres undefined), the TGI in assay [1], in assay [2], in assay [3], in assay [5] and in assay [4] was greater than 100 µM in each case.

In the case of `CC(=O)N[C@@H](Cc1ccc(O)cn1)C(=O)NC1CCCCC1`, the TGI in assay [2], in assay [3], in assay [5] and in assay [4] was greater than 100 µM each time.

Take `Cc1ccc(-n2cc(-c3ccc(Cl)cc3)c3c(=N)n(N)cnc32)cc1`: the TGI came out at 31.7 µM in assay [1], 25.1 µM in assay [2], 26.8 µM in assay [5] and 31.7 µM in assay [4].

Regarding `CCCCCCCc1ccc(-c2nnc(N=Nc3ccc(OCCCCC)cc3)s2)s1`, the TGI in assay [1], in assay [2], in assay [3], in assay [5] and in assay [4] was greater than 100 µM each time.

For `COc1ccc(/C=N/NC(=S)Nc2cc(C)ccc2OC)cc1`, the TGI in assay [1] is 66.7 µM; in assay [2], greater than 100 µM; in assay [3], greater than 100 µM; in assay [5] it was greater than 100 µM; in assay [4], 88.8 µM.

For the compound `NC(N)=NCCCC(NC(=O)c1c2ccccc2nc2ccccc12)C(=O)O` (centres undefined), the total growth inhibition concentration (TGI) in assay [2], in assay [5] and in assay [4] was greater than 100 µM each time.

As for `COc1ccc(CC[N+]2(C)COc3cc4oc(=O)cc(C)c4cc3C2)cc1OC` (centres undefined), the TGI in assay [1], in assay [2], in assay [3], in assay [5] and in assay [4] was greater than 100 µM in each case.

`N#Cc1c(N)nc(Sc2ccccc2N)c(C#N)c1-c1ccccc1`: the TGI in assay [2] was greater than 100 µM; in assay [5], 42.5 µM; in assay [4], 95.9 µM.

Turning to `CCC(=C/[C@H](C)C/C=C/C(C)=C/[C@@H](C)C(=O)[C@@H](C)[C@H](O)[C@@H](C)CC)/C=C/[C@H]1CC=CC(=O)O1`, the TGI in assay [1] is 0.0126 µM; in assay [2], 2.09 µM and 12.1 µM; in assay [3] it was 1.88 µM; in assay [5] it was 1.65 µM and 0.39 µM; in assay [4] it was 1.37 µM.

In the case of `Cc1cc2occ(S(=O)(=O)NC(=O)Nc3ccc(Cl)cc3)c(=O)c2c(=O)o1`, the total growth inhibition concentration (TGI) in assay [1], in assay [2], in assay [3], in assay [5] and in assay [4] was greater than 100 µM in each case.

`Cc1nc(Cc2n[nH]c(C)n2)n[nH]1`: the TGI in assay [2], in assay [5] and in assay [4] was greater than 100 µM throughout.

With `O=C(O)CCC1NC(/C(=C/c2ccccc2O)NC(=O)c2ccccc2)OC1=O` (centres undefined), the TGI in assay [1], in assay [2], in assay [3], in assay [5] and in assay [4] was greater than 100 µM each time.

In the case of `COc1cccc(CCCNC(=O)Cc2ccccc2CO)c1`, the TGI in assay [1], in assay [2], in assay [3], in assay [5] and in assay [4] was greater than 100 µM each time.

Turning to `COc1cc(/C=C2/Oc3c(OC)cccc3C2=O)ccc1O`, the TGI in assay [1], in assay [2] and in assay [4] was greater than 100 µM throughout.

For the compound `CCCCCCCCCCCCC1N=C(N)N2CCCC2=C1C(=O)OC` (centres undefined), the TGI in assay [2] was found to be 3.05 µM; in assay [3] it was 3.73 µM; in assay [5], 20.4 µM; in assay [4], 35 µM.

For `Cc1ccccc1Nc1nc2ccccc2nc1NS(=O)(=O)c1ccccc1`, the TGI in assay [1], in assay [2], in assay [3] and in assay [5] was greater than 100 µM throughout.

On to `C/C(Nc1ccc(Cl)cc1)=C1/CCOC1=O`, for which the TGI in assay [1], in assay [2], in assay [3], in assay [5] and in assay [4] was greater than 100 µM each time.

Consider `COc1ccc(/C=N/Nc2nnc3c(n2)c2ccccc2c2nn(-c4ccccc4Cl)nc23)cc1`, for which the TGI in assay [2], in assay [3], in assay [5] and in assay [4] was greater than 100 µM throughout.

For `COc1cc2c(cc1OC)C(=O)N(c1ccc(OCCN3CCCC3)cc1)C2=O`, the TGI in assay [1], in assay [2], in assay [3], in assay [5] and in assay [4] was greater than 100 µM each time.

For `CC(C)[C@@H]1NC(=O)[C@@H]2N=C(O[C@H]2C)[C@H](C(C)C)NC(=O)C2N=C1O[C@H]2C`, the TGI in assay [1], in assay [2], in assay [3] and in assay [5] was greater than 100 µM throughout.

For `C[n+]1c(-c2ccc(/C=N/NC(=O)C(=O)N/N=C/c3ccc(-c4cn5ccccc5[n+]4C)cc3)cc2)cn2ccccc21`, the TGI in assay [1], in assay [2], in assay [5] and in assay [4] was greater than 100 µM each time.

As for `CC[C@@]12CCC(=S)N(CCSc3ccccc3)[C@@H]1c1c(n(S(=O)(=O)c3ccc(OC)cc3)c3ccccc13)CC2`, the TGI in assay [1], in assay [2], in assay [3], in assay [5] and in assay [4] was greater than 100 µM in each case.
